Assay results taken from ChEMBL document CHEMBL1201862, “PubChem BioAssay data set” (2004).
Activity calls are given as the source filed them.

What was measured:
Caspase-6 = biological target: T1, Caspase-6 (Homo sapiens, UniProt P55212); test: human caspase-6 inhibitors, dose response, biochemical, VEID-R110 fluorescence, cherry-pick (AID 720632)
T1 sequence (P55212 whole entry): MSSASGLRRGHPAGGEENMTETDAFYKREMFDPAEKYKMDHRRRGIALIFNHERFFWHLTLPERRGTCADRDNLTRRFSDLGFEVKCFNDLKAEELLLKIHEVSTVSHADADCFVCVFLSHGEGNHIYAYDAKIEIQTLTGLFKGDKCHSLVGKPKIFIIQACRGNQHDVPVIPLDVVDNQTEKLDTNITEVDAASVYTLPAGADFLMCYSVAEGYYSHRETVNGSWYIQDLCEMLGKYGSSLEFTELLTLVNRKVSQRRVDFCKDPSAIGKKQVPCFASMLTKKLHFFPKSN

[1] = Luminescence-based cell-based high throughput dose response assay to identify activators of the DAF-12 from the parasite S. stercoralis (ssDAF-12).; type: functional
Caspase-8 = Caspase-8 (Homo sapiens, UniProt Q14790); test: caspase-8 inhibition counter-screen, dose response, selectivity assay for caspase-6 inhibitor project, biochemical, Z-IETD-R110 fluorescence, cherry-picked samples (AID 743294)
Sequence of Caspase-8 (Q14790 217-374 limits assumed): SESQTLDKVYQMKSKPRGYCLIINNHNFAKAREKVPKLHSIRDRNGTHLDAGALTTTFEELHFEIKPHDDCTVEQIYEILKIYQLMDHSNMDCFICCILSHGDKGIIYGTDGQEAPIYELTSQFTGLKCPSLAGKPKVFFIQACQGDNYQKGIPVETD
Sequence of Caspase-8 (Q14790 385-479 limits assumed): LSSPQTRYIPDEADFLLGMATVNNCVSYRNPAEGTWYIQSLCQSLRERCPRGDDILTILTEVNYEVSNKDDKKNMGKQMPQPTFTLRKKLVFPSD

Protein RecA = biological target: T2, Protein RecA (Mycobacterium tuberculosis, UniProt P9WHJ3); test: Fluorescence Cell-Free Homogeneous Dose Retest to Identify Inhibitors of RecA-Intein Splicing Activity. [Related pubchem assays (depositor defined):AID2097, AID2223, AID489010, AID492950]; type: functional
T2 sequence (P9WHJ3 whole entry): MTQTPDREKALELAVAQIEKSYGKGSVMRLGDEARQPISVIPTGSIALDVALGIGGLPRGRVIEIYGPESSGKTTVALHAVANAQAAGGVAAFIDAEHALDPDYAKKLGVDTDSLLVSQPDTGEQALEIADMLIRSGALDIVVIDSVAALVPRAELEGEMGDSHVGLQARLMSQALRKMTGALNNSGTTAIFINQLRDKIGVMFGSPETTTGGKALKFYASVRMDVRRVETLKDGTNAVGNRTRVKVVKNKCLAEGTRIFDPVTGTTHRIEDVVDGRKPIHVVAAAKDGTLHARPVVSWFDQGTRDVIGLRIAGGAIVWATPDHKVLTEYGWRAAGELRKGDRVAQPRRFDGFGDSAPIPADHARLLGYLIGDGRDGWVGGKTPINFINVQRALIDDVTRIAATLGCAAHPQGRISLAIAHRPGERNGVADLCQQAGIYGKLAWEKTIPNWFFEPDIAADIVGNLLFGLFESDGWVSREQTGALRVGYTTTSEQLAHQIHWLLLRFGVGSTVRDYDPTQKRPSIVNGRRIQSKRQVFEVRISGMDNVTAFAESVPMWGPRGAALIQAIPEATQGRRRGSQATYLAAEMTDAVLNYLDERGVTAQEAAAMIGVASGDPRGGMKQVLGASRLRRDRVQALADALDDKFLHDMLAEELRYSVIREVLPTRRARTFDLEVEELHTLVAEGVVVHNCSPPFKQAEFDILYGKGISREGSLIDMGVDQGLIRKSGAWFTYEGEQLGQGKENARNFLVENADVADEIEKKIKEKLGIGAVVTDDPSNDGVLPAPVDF

[2] = biological target: T3, Replicative DNA helicase DnaB (Mycobacterium tuberculosis, UniProt P9WMR3); test: DnaB intein splicing inhibitors, dose response, biochemical, cell-free fluorescence (AID 449749); type: functional
T3 sequence (P9WMR3 whole entry): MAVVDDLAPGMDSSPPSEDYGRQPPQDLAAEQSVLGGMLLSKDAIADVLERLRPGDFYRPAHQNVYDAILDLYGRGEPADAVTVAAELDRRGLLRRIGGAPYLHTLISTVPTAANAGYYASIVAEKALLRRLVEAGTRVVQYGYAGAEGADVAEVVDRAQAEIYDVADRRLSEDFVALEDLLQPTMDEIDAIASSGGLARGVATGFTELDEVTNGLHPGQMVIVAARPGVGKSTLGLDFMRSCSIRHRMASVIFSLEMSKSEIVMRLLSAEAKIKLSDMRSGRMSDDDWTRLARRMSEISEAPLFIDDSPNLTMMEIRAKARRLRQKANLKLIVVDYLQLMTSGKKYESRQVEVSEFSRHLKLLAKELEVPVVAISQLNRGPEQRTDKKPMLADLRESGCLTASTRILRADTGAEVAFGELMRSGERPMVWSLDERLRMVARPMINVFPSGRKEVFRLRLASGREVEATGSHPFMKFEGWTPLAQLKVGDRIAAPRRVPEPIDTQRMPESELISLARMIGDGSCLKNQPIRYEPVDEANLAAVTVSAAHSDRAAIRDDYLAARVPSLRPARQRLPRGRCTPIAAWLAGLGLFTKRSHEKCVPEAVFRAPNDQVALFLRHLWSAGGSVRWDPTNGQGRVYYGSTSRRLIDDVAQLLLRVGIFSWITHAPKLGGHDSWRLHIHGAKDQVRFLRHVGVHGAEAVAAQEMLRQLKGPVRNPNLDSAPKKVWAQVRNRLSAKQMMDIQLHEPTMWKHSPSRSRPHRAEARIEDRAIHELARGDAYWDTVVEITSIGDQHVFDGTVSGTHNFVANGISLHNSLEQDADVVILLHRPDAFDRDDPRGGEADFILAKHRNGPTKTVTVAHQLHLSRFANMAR

Caspase-9 = Caspase-9 (Homo sapiens, UniProt P55211); test: caspase-9 enzyme inhibition, dose response, selectivity assay for caspase-6 inhibitor project, biochemical, fluorescence, plate reader, cherry-picked samples (AID 743293)
Sequence of Caspase-9 (P55211 1-315 limits assumed): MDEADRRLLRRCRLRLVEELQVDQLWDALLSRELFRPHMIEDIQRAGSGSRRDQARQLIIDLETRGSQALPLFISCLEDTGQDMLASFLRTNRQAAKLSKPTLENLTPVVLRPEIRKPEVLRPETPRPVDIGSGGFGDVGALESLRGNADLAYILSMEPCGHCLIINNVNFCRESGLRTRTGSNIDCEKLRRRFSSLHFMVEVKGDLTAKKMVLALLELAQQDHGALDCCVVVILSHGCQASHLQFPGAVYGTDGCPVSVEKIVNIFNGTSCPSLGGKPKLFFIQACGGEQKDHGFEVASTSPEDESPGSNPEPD
Sequence of Caspase-9 (P55211 331-416 limits assumed): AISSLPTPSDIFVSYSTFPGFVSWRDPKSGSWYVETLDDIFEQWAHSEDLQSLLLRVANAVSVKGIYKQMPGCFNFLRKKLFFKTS

[3] = biological target: T4, Oxysterols receptor LXR-beta (Homo sapiens, UniProt P55055); test: LXR agonists, Gal4 luciferase reporter, dose response, counter-screen for ssDAF-12 agonist project, cell-based, luminescence, HEK293, S. stercoralis campaign (AID 720737); type: functional; conditions: read-out: IC50 (the source's name)
T4 sequence (P55055 whole entry): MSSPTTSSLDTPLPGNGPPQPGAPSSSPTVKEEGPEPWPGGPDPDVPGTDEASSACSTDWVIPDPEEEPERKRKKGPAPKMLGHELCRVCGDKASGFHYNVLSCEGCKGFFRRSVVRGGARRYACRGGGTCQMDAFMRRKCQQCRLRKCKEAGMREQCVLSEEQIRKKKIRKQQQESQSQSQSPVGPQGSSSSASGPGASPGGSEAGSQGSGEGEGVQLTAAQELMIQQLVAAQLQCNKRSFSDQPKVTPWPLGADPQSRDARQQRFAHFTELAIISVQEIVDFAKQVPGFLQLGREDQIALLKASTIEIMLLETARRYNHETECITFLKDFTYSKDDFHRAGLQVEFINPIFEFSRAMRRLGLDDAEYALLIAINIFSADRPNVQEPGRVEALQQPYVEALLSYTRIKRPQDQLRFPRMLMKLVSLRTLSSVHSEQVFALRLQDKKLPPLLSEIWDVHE

[4] = biological target: T5, Mannose-6-phosphate isomerase (Homo sapiens, UniProt P34949); test: human PMI inhibitors, high substrate, primary screen, biochemical, fluorescence intensity, high mannose 6-phosphate (AID 1220)
T5 sequence (P34949 whole entry): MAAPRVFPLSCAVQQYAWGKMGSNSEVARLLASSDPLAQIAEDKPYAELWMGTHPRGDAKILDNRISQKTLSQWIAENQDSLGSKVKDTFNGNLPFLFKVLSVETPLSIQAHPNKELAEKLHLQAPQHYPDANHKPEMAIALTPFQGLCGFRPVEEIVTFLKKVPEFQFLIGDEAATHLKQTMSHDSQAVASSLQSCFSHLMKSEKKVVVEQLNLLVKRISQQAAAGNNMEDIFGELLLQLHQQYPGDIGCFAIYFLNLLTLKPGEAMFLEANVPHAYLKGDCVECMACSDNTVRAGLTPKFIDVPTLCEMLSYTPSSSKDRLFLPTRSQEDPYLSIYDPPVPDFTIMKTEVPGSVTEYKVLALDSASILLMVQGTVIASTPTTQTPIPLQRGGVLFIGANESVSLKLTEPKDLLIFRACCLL

[5] = P. falciparum late gametocyte killing, dose response, luminescence (AID 1117278); type: functional, cell-based;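 also: gametocytes exposed to compound for 24 hours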
[6] = Jurkat T cell cytotoxicity, dose response, cytotoxicity control for P. falciparum gametocyte viability project, luminescence (AID 1117277); type: functional, cell-based;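 also: potency reflects loss of cellular ATP meaning fewer viable cells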
Cytochrome P450 2C19 = Cytochrome P450 2C19 (Homo sapiens, UniProt P33261); test: Cytochrome panel assay with activity outcomes. Panel member name: p450-cyp2c19 Compounds with AC50 equal or less than 10 uM are considered active; type: functional
Sequence of Cytochrome P450 2C19 (P33261 whole entry): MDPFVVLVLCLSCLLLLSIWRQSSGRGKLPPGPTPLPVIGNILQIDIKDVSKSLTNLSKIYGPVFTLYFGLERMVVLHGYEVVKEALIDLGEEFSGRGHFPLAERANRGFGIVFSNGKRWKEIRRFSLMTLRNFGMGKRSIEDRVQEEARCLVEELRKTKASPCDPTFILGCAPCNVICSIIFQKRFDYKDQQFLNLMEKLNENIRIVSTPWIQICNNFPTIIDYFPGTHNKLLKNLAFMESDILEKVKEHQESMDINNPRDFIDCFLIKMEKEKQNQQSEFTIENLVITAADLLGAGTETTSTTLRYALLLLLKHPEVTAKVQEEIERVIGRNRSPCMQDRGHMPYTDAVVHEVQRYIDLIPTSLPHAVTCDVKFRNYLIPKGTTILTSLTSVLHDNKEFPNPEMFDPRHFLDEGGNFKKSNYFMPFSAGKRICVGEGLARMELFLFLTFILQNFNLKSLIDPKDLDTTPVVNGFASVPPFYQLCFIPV

Cytochrome P450 2D6 = Cytochrome P450 2D6 (Homo sapiens, UniProt P10635);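 also: CYP2D6 member of a cytochrome P450 panel assay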
Sequence of Cytochrome P450 2D6 (P10635 whole entry): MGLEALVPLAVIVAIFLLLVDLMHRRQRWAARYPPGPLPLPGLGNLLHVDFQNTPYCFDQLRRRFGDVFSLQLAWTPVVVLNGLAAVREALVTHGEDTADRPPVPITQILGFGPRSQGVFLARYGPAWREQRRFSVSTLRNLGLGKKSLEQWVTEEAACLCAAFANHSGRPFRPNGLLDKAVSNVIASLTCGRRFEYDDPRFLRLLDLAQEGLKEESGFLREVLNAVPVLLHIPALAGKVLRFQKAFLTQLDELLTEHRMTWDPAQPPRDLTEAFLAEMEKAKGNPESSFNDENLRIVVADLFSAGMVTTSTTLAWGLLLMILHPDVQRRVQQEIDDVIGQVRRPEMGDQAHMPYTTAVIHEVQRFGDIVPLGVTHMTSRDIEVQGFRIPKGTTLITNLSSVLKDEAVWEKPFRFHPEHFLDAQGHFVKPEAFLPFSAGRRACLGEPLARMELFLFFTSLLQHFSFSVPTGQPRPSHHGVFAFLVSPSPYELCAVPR

Cytochrome P450 3A4 = Cytochrome P450 3A4 (Homo sapiens, UniProt P08684);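 also: CYP3A4 tested as one member of a cytochrome P450 panel screen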
Sequence of Cytochrome P450 3A4 (P08684 whole entry): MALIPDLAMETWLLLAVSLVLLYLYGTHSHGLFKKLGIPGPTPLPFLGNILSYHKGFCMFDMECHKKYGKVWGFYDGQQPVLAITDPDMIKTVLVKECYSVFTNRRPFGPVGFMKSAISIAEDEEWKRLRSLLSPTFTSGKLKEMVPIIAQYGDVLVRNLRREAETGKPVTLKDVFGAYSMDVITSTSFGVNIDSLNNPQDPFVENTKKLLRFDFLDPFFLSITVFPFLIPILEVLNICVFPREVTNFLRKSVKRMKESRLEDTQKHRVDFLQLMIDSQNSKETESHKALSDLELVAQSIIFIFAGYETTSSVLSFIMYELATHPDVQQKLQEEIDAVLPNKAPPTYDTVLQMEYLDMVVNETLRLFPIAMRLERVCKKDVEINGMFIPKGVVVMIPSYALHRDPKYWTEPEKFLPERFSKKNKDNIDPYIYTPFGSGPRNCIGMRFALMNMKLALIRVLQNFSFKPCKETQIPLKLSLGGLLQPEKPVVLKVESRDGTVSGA

[7] = biological target: Glutathione-S-transferase (Schistosoma japonicum, UniProt Q26513); test: biotin-GST/anti-GST TR-FRET signal inhibitors, dose response, artefact control for Vif-APOBEC3G degradation inhibitor project, biochemical (AID 1117362); type: functional
Sequence of Glutathione-S-transferase (Q26513 whole entry): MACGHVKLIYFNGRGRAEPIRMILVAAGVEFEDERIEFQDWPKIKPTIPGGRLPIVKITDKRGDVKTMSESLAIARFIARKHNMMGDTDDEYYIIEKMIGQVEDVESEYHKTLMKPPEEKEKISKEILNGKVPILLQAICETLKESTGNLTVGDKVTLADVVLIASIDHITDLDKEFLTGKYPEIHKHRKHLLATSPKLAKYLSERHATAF

[8] = biological target: Voltage-gated inwardly rectifying potassium channel KCNH2 (Homo sapiens, UniProt Q12809); test: hERG protection from proarrhythmic block, potency, dose response, cell-based, thallium flux (AID 2121); type: ADME
Sequence of Voltage-gated inwardly rectifying potassium channel KCNH2 (Q12809 whole entry): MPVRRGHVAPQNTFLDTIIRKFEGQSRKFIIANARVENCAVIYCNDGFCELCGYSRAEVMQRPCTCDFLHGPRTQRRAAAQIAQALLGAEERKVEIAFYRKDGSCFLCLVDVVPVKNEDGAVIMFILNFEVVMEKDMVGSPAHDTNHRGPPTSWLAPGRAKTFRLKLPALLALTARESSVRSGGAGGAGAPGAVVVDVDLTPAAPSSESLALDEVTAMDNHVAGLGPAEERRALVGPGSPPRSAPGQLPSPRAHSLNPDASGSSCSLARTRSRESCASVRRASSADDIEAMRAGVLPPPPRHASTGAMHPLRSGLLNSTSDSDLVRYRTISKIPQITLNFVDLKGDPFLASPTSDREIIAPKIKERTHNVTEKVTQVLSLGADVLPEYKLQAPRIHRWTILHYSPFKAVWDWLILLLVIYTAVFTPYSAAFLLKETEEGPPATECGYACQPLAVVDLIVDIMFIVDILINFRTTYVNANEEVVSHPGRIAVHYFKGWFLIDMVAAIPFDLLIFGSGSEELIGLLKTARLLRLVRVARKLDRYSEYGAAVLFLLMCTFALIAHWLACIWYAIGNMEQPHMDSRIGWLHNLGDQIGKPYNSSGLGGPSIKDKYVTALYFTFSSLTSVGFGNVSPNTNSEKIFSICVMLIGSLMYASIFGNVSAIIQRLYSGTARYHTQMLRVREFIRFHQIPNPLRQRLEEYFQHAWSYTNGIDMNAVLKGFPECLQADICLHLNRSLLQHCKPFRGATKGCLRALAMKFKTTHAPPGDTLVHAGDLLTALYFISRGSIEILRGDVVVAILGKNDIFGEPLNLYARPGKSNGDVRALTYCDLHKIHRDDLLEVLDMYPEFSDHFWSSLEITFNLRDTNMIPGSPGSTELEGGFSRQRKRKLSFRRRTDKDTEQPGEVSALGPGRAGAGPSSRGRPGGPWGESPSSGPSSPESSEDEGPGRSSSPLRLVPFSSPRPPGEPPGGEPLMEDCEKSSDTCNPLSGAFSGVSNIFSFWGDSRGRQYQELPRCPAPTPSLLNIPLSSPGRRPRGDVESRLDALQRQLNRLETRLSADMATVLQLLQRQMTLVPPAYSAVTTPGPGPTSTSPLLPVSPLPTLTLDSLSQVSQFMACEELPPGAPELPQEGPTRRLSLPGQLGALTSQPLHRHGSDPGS

[9] = inhibitors of intracellular T. cruzi replication, confirmation, NIH3T3 host cells, beta-gal luminescence (AID 2044); type: functional, cell-based;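 also: intracellular parasites grown in NIH/3T3 mouse fibroblasts as host cells; luminescent beta-galactosidase reporter signal from transgenic T. cruzi replicating inside host cells; inhibitors lower the luminescence signal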
[10] = cytotoxicity toward NIH3T3 fibroblasts, dose response, counter-screen, cell-based, ATP luminescence, mouse fibroblasts (AID 2010); type: functional;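 also: cells exposed to compound for about 90 hours before reading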

What does the source list for `Nc1cc2nn(-c3ccccc3)nc2cc1Cl`?
AC50 (Caspase-6): 2 µM (active); IC50 [1]: > 67.5 µM (inactive); AC50 (Caspase-8): 12.7 µM (active); EC50 (Protein RecA): 3.48 µM (active); AC50 [2]: 16.5 µM (active); AC50 (Caspase-9): 29.9 µM (active); EC50 [3]: > 67.5 µM (inactive); IC50 [4]: > 50 µM (not active)

Which IC50 [5] does the source give for `O=C(Nc1ccc(S(=O)(=O)N2CCCC2)cc1)C1CC(=O)N(c2ccccc2)C1` (stereo not given) here?
Its IC50 is > 109 µM (inactive).

What about the IC50 [6] of the same molecule?
Its IC50 is > 83.3 µM (inactive).

What does the source list for `C=CCn1c(C)c(C(C)=O)c(N2CCN(c3ccccc3)CC2)nc1=S`?
AC50 (Cytochrome P450 2C19): 5.62 µM (inconclusive); AC50 (Cytochrome P450 2D6): 22.4 µM (inconclusive); AC50 (Cytochrome P450 3A4): 25.1 µM (inconclusive); IC50 [7]: 19.8 µM (active)

Which EC50 [8] does the source give for `O=C(NC(=S)Nc1cc(C(F)(F)F)ccc1N1CCOCC1)c1ccco1` here?
Its EC50 is 4.72 µM (active).

What does the source list for `Cc1cc2nc3n(c2cc1C)CCCN3`?
EC50 [9]: < 0.1 µM (active); EC50 [10]: > 60 µM (not active); EC50 (cells): 0.121 µM (active)

With `CC(C)CSc1oc(-c2ccco2)nc1S(=O)(=O)c1ccccc1` as the molecule, how does the IC50 [5] read?
Its IC50 is > 109 µM (inactive).

And the IC50 [6]?
Its IC50 is > 83.3 µM (inactive).
